Results taken from ChEMBL document CHEMBL1155951 (Bioorg Med Chem Lett, 2008).

What was measured:
[1] = Selectivity index, ratio of IC50 for african green monkey (Cercopithecus aethiops) Vero cells to IC50 for chloroquine-resistant Plasmodium falciparum FcB1; assay type: toxicity, cell-based; conditions: read-out: Ratio IC50
Plasmodium falciparum [2] = test: Antiplasmodial activity against chloroquine-resistant Plasmodium falciparum W2 gametocytes after 48 hrs by microscopy; assay type: functional, organism-based; conditions: W2, 48 h
[3] = Selectivity index, ratio of IC50 for african green monkey (Cercopithecus aethiops) Vero cells to IC50 for chloroquine-sensitive Plasmodium falciparum F32; assay type: toxicity, cell-based; conditions: read-out: Ratio IC50
[4] = Selectivity index, ratio of IC50 for african green monkey (Cercopithecus aethiops) Vero cells to IC50 for chloroquine-resistant Plasmodium falciparum FcM29; assay type: toxicity, cell-based; conditions: read-out: Ratio IC50
[5] = Selectivity index, ratio of IC50 for african green monkey (Cercopithecus aethiops) Vero cells to IC50 for chloroquine-resistant Plasmodium falciparum W2; assay type: toxicity, cell-based; conditions: read-out: Ratio IC50
Plasmodium falciparum [6] = test: Antiplasmodial activity against chloroquine-sensitive Plasmodium falciparum F32 after 48 hrs by [3H]hypoxanthine uptake; assay type: functional, organism-based
Vero = test: Cytotoxicity against african green monkey Vero cells assessed as [3H]hypoxanthine incorporation after 48 hrs; assay type: cell-based; conditions: Chlorocebus sabaeus
Plasmodium falciparum [7] = test: Antiplasmodial activity against chloroquine-resistant Plasmodium falciparum FcM29 after 48 hrs by [3H]hypoxanthine uptake; assay type: functional, organism-based
Plasmodium falciparum [8] = test: Antiplasmodial activity against chloroquine-resistant Plasmodium falciparum FcB1 after 48 hrs by [3H]hypoxanthine uptake; assay type: functional, organism-based; conditions: FcB1/Columbia
Plasmodium falciparum [9] = test: Antiplasmodial activity against chloroquine-resistant Plasmodium falciparum W2 after 48 hrs by [3H]hypoxanthine uptake; assay type: functional, organism-based

Compound	selectivity ratio [1]	IC50 (Plasmodium falciparum [2])	selectivity ratio [3]	selectivity ratio [4]	selectivity ratio [5]	IC50 (Plasmodium falciparum [6])	IC50 (Vero)	IC50 (Plasmodium falciparum [7])	IC50 (Plasmodium falciparum [8])	IC50 (Plasmodium falciparum [9])
Cc1nc2c(ccc3cccnc32)c2[nH]ccc12	54	10.6 µM	47	7	15	1.31 µM	61.6 µM	9.36 µM	1.14 µM	4.17 µM
Cc1nc2c(ccc3cccnc32)c2occc12	39	5.5 µM	32	99	34	1.18 µM	37.6 µM	0.38 µM	0.97 µM	1.1 µM
COc1cc2cccnc2c2nc(C)c3cc[nH]c3c12	132	9.8 µM	72	23	23	0.41 µM	29.8 µM	1.28 µM	0.22 µM	1.28 µM
COc1cc2cccnc2c2nc(C)c3ccoc3c12	39	3.75 µM	72	129	66	0.86 µM	62.2 µM	0.48 µM	0.93 µM	0.93 µM
COc1cc(NC(C)CCCN)c2ncccc2c1 (stereo not given) [PRIMAQUINE]							340 µM			
COc1cc2cccnc2c2nc(C)c(CCCl)c(Cl)c12						7.71 µM		5 µM	4.84 µM	6.56 µM
